Test results from patent publication US9827222B2, “Treating or preventing nephrogenic diabetes insipidus” (Emory University, priority 2013, dated 2017).

Assays:
[1] = Urine osmolality in lithium-treated mice; type: in vivo; conditions: mice fed lithium for 14 days; 4 h after IP injection of metformin
Description: (§1) Rats with normal water (blue); water loaded for 1 week (red). Mice fed lithium for 14 days (green); V2R−/− mice (brown).

[2] = Urine osmolality in V2R knock-out mice (model of congenital NDI); type: in vivo; conditions: 4 h after IP injection of metformin
Description: as §1
(§2) Preliminary data indicates AMPK phosphorylates both the UT-A1 and AQP2 proteins, both in vitro (FIG. 3) and in native rat IMCD suspensions (FIG. 4). […]. Thus, AMPK may mimic by which vasopressin increases urine concentrating ability.

[3] = system: AQP2; test: AQP2 phosphorylation in rat inner medulla
Description: Left: immune-precipitated 32P-AQP2; Right: phospho S256-AQP2.

[4] = Urine osmolality in rats after IP metformin; type: in vivo, rat; conditions: rats with normal water or water loaded for 1 week; 4 h after IP injection of metformin
Description: as §1

[5] = system: UT-A1; test: UT-A1 phosphorylation in rat inner medullary tissue; conditions: AMPK stimulation with metformin, p<0.05
Description: as §2

[6] = system: AQP2; test: Apical plasma membrane AQP2 in IMCDs of treated rats; type: in vivo, rat; conditions: 4 h, 100 mg/kg IP
Description: 400×, HRP/Dab with hematoxylin stained nuclei.

[7] = system: UT-A1-mIMCD3 cells; test: cAMP in UT-A1-mIMCD3 cells; type: cell-based; conditions: 1 μM vasopressin (AVP) for 10 min; p<0.05
Experimental: FIG. 5 illustrates cAMP in UT-A1-mIMCD3 cells after treatment with 1 μM vasopressin (AVP) for 10 min, *=p<0.05.

## CN(C)C(=N)N=C(N)N [metformin]
[1]
  urine osmolality: increases
[2]
  urine osmolality: increases
[3]; rat inner medulla, 10^-4 M metformin with V2R inhibited using 10^-7 M tolvaptan
  pS256-AQP2: increases
[3]; rat inner medullary tissue, AMPK stimulation with metformin, p<0.05
  AQP2 phosphorylation: undergo phosphorylation
[4]
  urine osmolality: increases
[5]
  UT-A1 phosphorylation: undergo phosphorylation
[6]
  apical plasma membrane AQP2: increases

## Cc1ccccc1C(=O)Nc1ccc(C(=O)N2CCCC(O)c3cc(Cl)ccc32)c(C)c1 (stereo not drawn) [tolvaptan]
[3]; native rat IMCDs, 10^-7 M tolvaptan & 10^-4 M metformin, compared to metformin alone
  AQP2 phosphorylation (immune-precipitated 32P-AQP2): increased

## NC(=O)CC[C@@H]1NC(=O)[C@H](Cc2ccccc2)NC(=O)[C@H](Cc2ccc(O)cc2)NC(=O)[C@@H](N)CSSC[C@@H](C(=O)N2CCC[C@H]2C(=O)N[C@@H](CCCN=C(N)N)C(=O)NCC(N)=O)NC(=O)[C@H](CC(N)=O)NC1=O [Vasopressin, vasopressin]
[7]
  cAMP: increases
